# Reference: patent publication US8653096B2, “Chemokine receptor antagonists and methods of use thereof” (Millennium Pharmaceuticals, Inc., priority 2001, dated 2014)
# Target: T1, RANTES/MIP-1α chemokine receptor (CCR1) in THP-1 cell membranes (Homo sapiens, UniProt P32246)
# T1 construct: Membranes were prepared from THP-1 cells (ATCC #TIB202); host or cells: THP-1 cells (membrane preparation)
# T1 sequence (P32246 1-355): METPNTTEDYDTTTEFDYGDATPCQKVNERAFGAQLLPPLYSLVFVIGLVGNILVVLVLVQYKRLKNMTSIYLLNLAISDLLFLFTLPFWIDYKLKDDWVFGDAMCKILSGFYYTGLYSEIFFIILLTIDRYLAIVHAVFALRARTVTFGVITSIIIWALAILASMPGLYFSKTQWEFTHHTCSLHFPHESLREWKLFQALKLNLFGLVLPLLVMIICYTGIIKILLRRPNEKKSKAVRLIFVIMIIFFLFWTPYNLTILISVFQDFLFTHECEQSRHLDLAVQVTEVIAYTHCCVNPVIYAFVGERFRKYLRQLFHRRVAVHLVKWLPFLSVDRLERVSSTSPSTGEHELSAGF
# Test: Receptor binding assay: 125I-RANTES or 125I-MIP-1α binding to THP-1 cell membranes
# Conditions: inhibitor concentration required for 50% inhibition of specific binding; 125I-RANTES or 125I-MIP-1α as ligand, THP-1 cell membranes; read-out: IC50
row,Compound,IC50
1,"4-(4-Chlorophenyl)-1-[3-(5,11-dihydro-7-dimethylaminocarbonylmethyloxy[1]benzoxepino[2,3-b]pyridin-5-ylidene)propyl]piperidine [Example 155]",< 1 µM
2,"CCN(c1ccc(Cl)cc1)C1CCN(CCC=C2c3cc(C(C)(C)O)ccc3OCc3ncccc32)CC1 [Example 493, 2-[5-(3-{4-[(4-Chloro-phenyl)-ethyl-amino]-piperidin-1-yl}-propylidene)-5,11-dihydro-10-oxa-1-aza-dibenzo[a,d]cyclohepten-7-yl]-propan-2-ol]",< 10 µM
3,"CCN(CC)CCOC(=O)c1ccc2c(c1)C(=CCCN1CCC(O)(c3ccc(Cl)cc3)CC1)c1cccnc1CO2 [Example 431, 4-(4-Chlorophenyl)-1-[3-(5,11-dihydro-7-(2,2-diethylaminoethyl-1-yl)-oxycarbonyl-[1]benzoxepino[2,3-b]pyridin-5-ylidene)propyl]piperidine-4-ol]",< 1 µM
4,"COC(=O)CCN(Cc1ccc(Cl)cc1)C1CCN(CCC=C2c3cc(C(C)(C)O)ccc3OCc3ncccc32)C1 (centres unmarked) [Example 555, 3-[(4-Chloro-benzyl)-(1-{3-[7-(1-hydroxy-1-methyl-ethyl)-11H-10-oxa-1-aza-dibenzo[a,d]cyclohepten-5-ylidene]-propyl}-pyrrolidin-3-yl)-amino]-propionic acid methyl ester]",< 1 µM
5,"COC1(c2ccc(Cl)cc2)CCN(CCC=C2c3ccccc3COc3ccccc32)CC1 [Example 36, 4-(4-Chlorophenyl)-1-[3-(6,11-dihydrodibenz[b,e]oxepin-11-ylidene)propyl]-4-methoxypiperidine]",< 1 µM
6,"COC(=O)CN(Cc1ccc(Cl)cc1)C1CCN(CCC=C2c3cc(C(C)(C)O)ccc3OCc3ncccc32)C1 (centres unmarked) [Example 536, [(4-Chloro-benzyl)-(1-{3-[7-(1-hydroxy-1-methyl-ethyl)-11H-10-oxa-1-aza-dibenzo[a,d]cyclohepten-5-ylidene]-propyl}-pyrrolidin-3-yl)-amino]-acetic acid methyl ester]",< 1 µM
7,"4-(4-Chlorophenyl)-1-[3-(5,11-dihydro-7-(1-ethoxycarbonyl-1-methylethyl)oxy[1]benzoxepino[2,3-b]pyridin-5-ylidene)propyl]piperidine [Example 158]",< 1 µM
8,OC1(c2ccc(Cl)cc2)CCN(CCC=C2c3cc(OCc4nnn[nH]4)ccc3OCc3ncccc32)CC1 [Example 132],< 1 µM
9,"Methyl 1-[3-(5,11-dihydro-7-methoxy[1]benzoxepino[2,3-b]pyridin-5-ylidene)propyl]-4-phenylpiperidin-4-carboxylate [Example 188]",> 10 µM
10,"COc1ccc2c(c1)C(=CCCN1CCC(n3c(=O)[nH]c4ccccc43)CC1)c1cccnc1CO2 [Example 67, 1-[3-(5,11-Dihydro-7-methoxy[1]benzoxepino[2,3-b]pyridin-5-ylidene)propyl]-4-(2-keto-1-benzimidazolinyl)piperidine]",< 1 µM
11,"O=C(O)C1(Oc2ccc3c(c2)C(=CCCN2CCC(O)(c4ccc(Cl)cc4)CC2)c2cccnc2CO3)CCC1 [Example 180, 1-[3-(7-(1-Carboxy)cyclbutoxy-5,11-dihydro[1]benzoxepino[2,3-b]pyridin-5-ylidene)propyl]-4-(4-chlorophenyl)piperidin-4-ol]",< 1 µM
12,"CNC(=O)C(C)(C)Oc1ccc2c(c1)C(=CCCN1CCC(O)(c3ccc(Cl)cc3)CC1)c1cccnc1CO2 [Example 212, 4-(4-Chlorophenyl)-1-[3-(5,11-dihydro-7-(1-methylaminocarbonyl-1-methyl)ethyloxy[1]benzoxepino[2,3-b]pyridin-5-ylidene)propyl]piperidin-4-ol]",< 1 µM
13,"4-(4-Chlorophenyl)-1-[3-(5,11-dihydro-9-methoxy[1]benzoxepino[2,3-b]pyridin-5-ylidene)propyl]piperidin-4-ol [Example 166]",< 10 µM
14,"CC1(C)CN(CCC=C2c3cc(OCC(N)=O)ccc3OCc3ncccc32)CCC1(O)c1ccc(Cl)cc1 (centres unmarked) [Example 516, 2-(5-{3-[4-(4-Chloro-phenyl)-4-hydroxy-3,3-dimethyl-piperidin-1-yl]-propylidene}-5,11-dihydro-10-oxa-1-aza-dibenzo [a,d]cyclohepten-7-yloxy)-acetamide]",< 1 µM
15,"CC(C)(O)c1ccc2c(c1)C(=CCCN1CCC(O)(c3ccc(Cl)cc3)C(C)(CO)C1)c1cccnc1CO2 (centres unmarked) [Example 482, 4-(4-Chloro-phenyl)-3-hydroxymethyl-1-{3-[7-(hydroxyl-1-methyl-ethyl)-11H-10-oxa-1-aza-dibenzo[a, d]cyclohepten-5-ylidene]-propyl}-3-methyl-piperidine-4-ol]",< 1 µM
16,"CC(C)(O)c1ccc2c(c1)C(=CCCN1CCC(N(CC(=O)O)Cc3ccc(Cl)cc3)C1)c1cccnc1CO2 (centres unmarked) [Example 537, [(4-Chloro-benzyl)-(1-{3-[7-(1-hydroxy-1-methyl-ethyl)-11H-10-oxa-1-aza-dibenzo[a,d]cyclohepten-5-ylidene]-propyl}-pyrrolidin-3-yl)-amino]-acetic acid]",< 1 µM

row,Compound,IC50
1,"O=C1c2ccccc2C(=CCCN2CCC(O)(c3ccc(Cl)cc3)CC2)c2ccccc2N1Cc1ccccc1 [Example 12, 1-[3-(5-Benzyl-6,11-dihydro-6-oxo-5H-dibenz[b,e]azepin-11-ylidene)propyl]-4-(4-chlorophenyl)-piperidin-4-ol]",< 1 µM
2,"4-(3-Chlorophenyl)-1-[3-(5,11-dihydro-7-methoxy[1]benzoxepino[2,3-b]pyridin-5-ylidene)propyl]piperidin-4-ol [Example 75]",< 10 µM
3,"CCOC(=O)C(C)(C)Oc1ccc2c(c1)C(=CCCN1CCC(O)(c3ccc(Cl)cc3)C(C)(C)C1)c1cccnc1CO2 (centres unmarked) [Example 510, 2-(5-{3-[4-(4-Chloro-phenyl)-4-hydroxy-3,3-dimethyl-piperidin-1-yl]-propylidene}-5,11-dihydro-10-oxa-1-aza-dibenzo[a,d]cyclohepten-7-yloxy)-2-methyl-propionic acid ethyl ester]",< 1 µM
4,"1-[3-(7-Carbamoylmethyloxy-5,11-dihydro[1]benzoxepino[2,3-b]pyridin-5-ylidene)propyl]-4-(4-chlorophenyl)piperidin-4-ol [Example 181]",< 1 µM
5,"CC(C)(O)c1ccc2c(c1)C(=CCCN1CCC(N(Cc3ccc(Cl)cc3)C(=O)C3CCCC3)C1)c1cccnc1CO2 (centres unmarked) [Example 564, Cyclopentanecarboxylic acid (4-chloro-benzyl)-(1-{3-[7-(1-hydroxy-1-methyl-ethyl)-11H-10-oxa-1-aza-dibenzo[a,d]cyclohepten-5-ylidene]-propyl}-pyrrolidin-3-yl)-amide]",< 10 µM
6,"5-Chloro-1′-[3-(5,11-dihydro-7-(2-methoxyethyl)oxy[1]benzoxepino[2,3-b]pyridin-5-ylidene)propyl]spiro[isobenzofuran-1(3H), 4′-piperidine] [Example 197]",< 1 µM
7,"1-[3-(5,11-Dihydro-7-methoxy[1]benzoxepino[2,3-b]pyridin-5-ylidene)propyl]-4-(2-furoyl)piperazine [Example 74]",< 1000 µM
8,"4-(4-Chlorophenyl)-1-[3-(5,11-dihydro-7-(ethoxycarbonylmethyl)-oxycarbonyl-[1]benzoxepino[2,3-b]pyridin-5-ylidene) propyl]piperidine-4-ol [Example 424]",< 1 µM
9,"4-(4-Chlorophenyl)-1-[3-(5,11-dihydro-7-methoxy[1]benzoxepino[2,3-b]pyridin-5-ylidene)propyl]piperidin-4-ol [Example 45]",< 1 µM
10,"CC(C)CN(Cc1ccc(Cl)cc1)C1CCN(CCC=C2c3cc(C(C)(C)O)ccc3OCc3ncccc32)C1 (centres unmarked) [Example 550, 2-[5-(3-{3-[(4-Chloro-benzyl)-isobutyl-amino]-pyrrolidin-1-yl}-propylidene)-5,11-dihydro-10-oxa-1-aza-dibenzo[a,d]cyclohepten-7-yl]-propan-2-ol]",< 1 µM
11,"CCN(C(=O)Nc1ccc(Cl)cc1)C1CCN(CCC=C2c3cc(C(C)(C)O)ccc3OCc3ncccc32)C1 (centres unmarked) [Example 548, 3-(4-Chloro-phenyl)-1-ethyl-1-(1-{3-[7-(1-hydroxy-1-methyl-ethyl)-11H-10-oxa-1-aza-dibenzo[a,d]cyclohepten-5-ylidene]-propyl}-pyrrolidin-3-yl)-urea]",< 10 µM
12,"1-[3-(7-Carboxy-5,11-dihydro[1]benzoxepino[2,3-b]pyridin-5-ylidene)propyl]-4-(4-chlorophenyl)piperidin-4-ol [Example 118]",< 1 µM
13,"1-{3-[7-(1-Hydroxy-1-methyl-ethyl)-11H-10-oxa-1-aza-dibenzo[a,d]cyclohepten-5-ylidene]-propyl}-4-phenyl-piperidin-4-ol [Example 488]",< 1 µM
14,"CC(C)(O)c1ccc2c(c1)C(=CCCN1CCC(N(Cc3ccc(Cl)cc3)C(=O)C3CCCCC3)C1)c1cccnc1CO2 (centres unmarked) [Example 565, Cyclohexanecarboxylic acid (4-chloro-benzyl)-(1-{3-[7-(1-hydroxy-1-methyl-ethyl)-11H-10-oxa-1-aza-dibenzo[a,d]cyclohepten-5-ylidene]-propyl}-pyrrolidin-3-yl)-amide]",< 10 µM
15,"4-(4-Chlorophenyl)-1-[3-(5,11-dihydro-7-(1-propoxy)carbonyl-[1]benzoxepino[2,3-b]pyridin-5-ylidene) propyl]piperidine-4-ol [Example 426]",< 1 µM
16,"4-(4-Bromophenyl)-1-[3-(5,11-dihydro-7-methoxy[1]benzoxepino[2,3-b]pyridin-5-ylidene)propyl]piperidin-4-ol [Example 60]",< 1 µM
